# According to patent US8691802B2, “Stabilized compositions comprising a therapeutically active agent and an oxidizing preservative” (Allergan, Inc., priority 2005, dated 2014):
# Like-named read-outs stand apart in the source and are kept apart here.
# Conditions: for Stabilized Chlorine Dioxide Concentration: ingredient added to proprietary brimonidine composition; for Stabilization of chlorine dioxide by the excipient (in words): proprietary brimonidine composition
# Experimental: Each of the excipients was added, in the amounts shown, to a proprietary composition comprising brimonidine as a therapeutically active agent.
Structure (SMILES),Stabilized Chlorine Dioxide Concentration (0 Days) [ppm],Stabilized Chlorine Dioxide Concentration (7 Days) [ppm],Stabilized Chlorine Dioxide Concentration (14 Days) [ppm],Stabilization of chlorine dioxide by the excipient (in words)
O=C(O)CN(CCN(CC(=O)O)CC(=O)O)CC(=O)O [EDTA],44,2,0,do not stabilize
NCCN [Ethylene diamine],–,–,–,do not stabilize
O=C([O-])/C(O)=C(\O)C(=O)[O-].[Na+].[Na+] [Sodium Dihydroxyfurmarate],37,13,0,–
O=C[O-].[Na+] [Sodium Formate],42,40,36,–
CC(O)C(=O)[O-].[Na+] (stereo not shown) [Sodium Lactate],45,40,37,–
O=C([O-])C(=O)[O-].[Na+].[Na+] [Sodium Oxalate],39,38,35,similarly ineffective
CC(=O)C(=O)[O-].[Na+] [Sodium Pyruvate],–,–,–,similarly ineffective
